# Laboratory results: BigSolDB 2.1
smiles,measurement,setting,value
Nc1ccc(S(=O)(=O)Nc2ncccn2)cc1,solubility (mole fraction),"in ethylene glycol, 278.15 K",0.00034
same,solubility (mole fraction),"in ethylene glycol, 283.15 K",0.000379
same,solubility (mole fraction),"in ethylene glycol, 288.15 K",0.000413
same,solubility (mole fraction),"in ethylene glycol, 293.15 K",0.00047
same,solubility (mole fraction),"in ethylene glycol, 298.15 K",0.000532
same,solubility (mole fraction),"in ethylene glycol, 303.15 K",0.000575
same,solubility (mole fraction),"in ethylene glycol, 308.15 K",0.000637
same,solubility (mole fraction),"in ethylene glycol, 313.15 K",0.000694
same,solubility (mole fraction),"in ethylene glycol, 318.15 K",0.000752
same,solubility (mole fraction),"in water, 278.15 K",1.61e-06
same,solubility (mole fraction),"in water, 283.15 K",2.01e-06
same,solubility (mole fraction),"in water, 288.15 K",2.86e-06
same,solubility (mole fraction),"in water, 293.15 K",3.8e-06
same,solubility (mole fraction),"in water, 298.15 K",4.81e-06
same,solubility (mole fraction),"in water, 303.15 K",6.49e-06
same,solubility (mole fraction),"in water, 308.15 K",8.69e-06
same,solubility (mole fraction),"in water, 313.15 K",1.14e-05
same,solubility (mole fraction),"in water, 318.15 K",1.22e-05
